# Measurements from ChEMBL document CHEMBL3734735, “The effect of N-methylation on transition state mimetic inhibitors of the Plasmodium protease, plasmepsin V” (Medchemcomm, 2015).
# Active and inactive are the calls of the source. The calls are words filed in the database; no cut-off is given here. Square brackets hold non-standard residues; d marks the D form. Peptide text beside a SMILES is read from it. * marks the point of attachment. Sta = CC(C)C[C@H](N)[C@@H](O)CC(=O)O; NHPhenethyl = c1ccc(CCN*)cc1; NMeV = CN[C@H](C(=O)O)C(C)C; Cbz = O=C(OCc1ccccc1)*
# Columns and labels:
# [1] = system: Plasmodium falciparum; assay: Antiparasitic activity against early ring-stage of Plasmodium falciparum 3D7 infected in human erythrocytes assessed as inhibition of parasite viability after 72 hrs by flow cytometric analysis; type: functional, organism-based; settings: 3D7, 72 h
# [2] = target: Plasmepsin V (Plasmodium falciparum (isolate 3D7), UniProt Q8I6Z5); assay: Inhibition of HA-tagged transgenic Plasmodium falciparum plasmepsin 5 using DABCYL-RNKRTLAQKQ-E-EDANS as substrate after 120 mins by fluorescence plate reader analysis
# Plasmepsin V, sequence (Q8I6Z5 whole entry): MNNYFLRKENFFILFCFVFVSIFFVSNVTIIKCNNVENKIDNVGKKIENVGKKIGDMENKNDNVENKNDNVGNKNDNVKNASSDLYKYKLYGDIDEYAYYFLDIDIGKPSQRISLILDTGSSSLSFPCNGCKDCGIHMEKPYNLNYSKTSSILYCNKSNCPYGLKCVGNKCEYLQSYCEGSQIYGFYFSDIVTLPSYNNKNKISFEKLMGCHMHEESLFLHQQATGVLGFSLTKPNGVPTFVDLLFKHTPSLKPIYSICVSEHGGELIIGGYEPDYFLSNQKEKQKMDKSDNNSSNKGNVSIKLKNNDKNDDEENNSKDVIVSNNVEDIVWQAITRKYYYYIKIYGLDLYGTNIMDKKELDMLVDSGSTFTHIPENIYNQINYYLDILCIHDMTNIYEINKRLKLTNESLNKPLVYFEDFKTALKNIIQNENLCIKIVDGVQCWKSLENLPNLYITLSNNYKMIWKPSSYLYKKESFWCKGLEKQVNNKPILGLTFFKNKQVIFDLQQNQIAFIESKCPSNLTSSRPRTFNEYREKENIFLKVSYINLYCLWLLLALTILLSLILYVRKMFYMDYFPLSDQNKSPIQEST
# [3] = system: Serum; assay: Metabolic stability in human serum at 5000 ng/ml at 37 degC measured over 55 hrs by LC-MS analysis; type: ADME
# [4] = Stability in phosphate buffer at 5000 ng/ml at 37 degC at pH 7.4 measured over 24 hrs by LC-MS analysis in presence of porcine pancreatin; type: physicochemical; settings: pig, pH 7.4, 24 h
# [5] = system: HepG2; assay: Cytotoxicity against human HepG2 cells after 48 hrs by CellTiter Glo assay; type: cell-based; settings: HepG2, 48 h
# [6] = target: Plasmepsin V (Plasmodium falciparum (isolate 3D7)) (UniProt Q8I6Z5); assay: Inhibition of plasmepsin 5 in trophozoite stage of transgenic Plasmodium falciparum infected in erythrocytes assessed as suppression of PEXEL processing of GFP-fused EMP3 at 20 uM after 5 hrs by Western blot analysis; type: cell-based
# Plasmepsin V (Plasmodium falciparum (isolate 3D7)), sequence (Q8I6Z5 whole entry, looked up, the tested form may be a part): as the sequence (Q8I6Z5 whole entry) above
IC50 [2] [µM],Stability [3],Stability [4],inhibition [6],Compound,EC50 [1] [µM],EC50 [5] [µM]
,,,,CCN(CC)CCCC(C)Nc1ccnc2cc(Cl)ccc12 (centres undefined) [CHLOROQUINE],0.01,
48,Stable,Stable,inactive,CC(C)C[C@H](NC(=O)[C@H](C)N(C)C(=O)[C@H](CCCNC(=N)N)NC(=O)OCc1ccccc1)[C@@H](O)CC(=O)NCCc1ccc(Cl)cc1,23.2,> 50
,,,,COc1cc([C@@H]2c3cc4c(cc3[C@@H](O[C@@H]3O[C@@H]5CO[C@@H](C)O[C@H]5[C@H](O)[C@H]3O)[C@H]3COC(=O)[C@H]23)OCO4)cc(OC)c1O [ETOPOSIDE],,9.8
0.3,Stable,Stable,Active,CC(C)C[C@H](NC(=O)[C@H](C)NC(=O)[C@H](CCCNC(=N)N)NC(=O)OCc1ccccc1)[C@@H](O)CC(=O)NCCc1ccc(Cl)cc1,15.3,> 50
0.026,,,Active,CC(C)C[C@H](NC(=O)[C@@H](NC(=O)[C@H](CCCNC(=N)N)NC(=O)OCc1ccccc1)C(C)C)[C@@H](O)CC(=O)NCCc1ccccc1 (Cbz-Arg-Val-[Sta]-NHPhenethyl),3.97,> 50
> 50,,,inactive,CC(C)C[C@H](NC(=O)[C@H](C(C)C)N(C)C(=O)[C@H](CCCNC(=N)N)NC(=O)OCc1ccccc1)[C@@H](O)CC(=O)NCCc1ccccc1 (Cbz-Arg-[NMeV]-[Sta]-NHPhenethyl),5.89,
15.6,Stable,Stable,inactive,CC(C)C[C@H](NC(=O)[C@H](C)NC(=O)[C@H](CCCNC(=N)N)N(C)C(=O)OCc1ccccc1)[C@@H](O)CC(=O)NCCc1ccc(Cl)cc1,67.8,> 50
0.89,Stable,Unstable,inactive,CC(C)C[C@@H]([C@@H](O)CC(=O)NCCc1ccc(Cl)cc1)N(C)C(=O)[C@H](C)NC(=O)[C@H](CCCNC(=N)N)NC(=O)OCc1ccccc1,29.2,> 50
5.35,Stable,Stable,inactive,CC(C)C[C@H](NC(=O)[C@H](C)NC(=O)[C@H](CCCNC(=N)N)NC(=O)OCc1ccccc1)[C@@H](O)CC(=O)N(C)CCc1ccc(Cl)cc1,20.3,> 50
